Experimental data from ChEMBL document CHEMBL1149239, “Synthesis and pharmacological evaluation of piperidinoalkanoyl-1,2,3,4-tetrahydroisoquinoline derivatives as novel specific bradycardic agents” (2004).

How the values were obtained:
Format in all cases: functional
Cavia porcellus = species: Cavia porcellus; assay: Concentration required to produce 30% reduction from the initial beat rates in isolated guinea pig right atria.
Rattus norvegicus [1] = assay: Reduction of spontaneous sinus heart rate (HR) when […] in conscious rats; Reduced from -23.5 to -87.8 beats/min
Rattus norvegicus [2] = assay: Reduction of mean blood pressure (MBP) when […] in conscious rats; Reduced from 2.12 to 2.0 mmHg
Rattus norvegicus [3] = assay: Reduction of spontaneous sinus heart rate (HR) when […] in conscious rats; Reduced from -5.28 to -20.0 beats/min

Structure (SMILES) | EC30 (Cavia porcellus) [nM] | also measured
COc1cc2c(cc1OC)CN(C(=O)CCN1CCC(Oc3ccc4c(c3)OCO4)CC1)CC2 | 440 | Heart rate (Rattus norvegicus [1]): -87.8 beats min-1; MBP (Rattus norvegicus [2]): 2 mmHg
COc1cc2c(cc1OC)CN(C(=O)CCN1CCC(CCOc3ccc4c(c3)OCO4)CC1)CC2 | 450 | 
COc1cc2c(cc1OC)CN(C(=O)CCN1CCCC(Oc3ccc4c(c3)OCO4)C1)CC2 (stereo not given) | 3030 | 
COc1cc2c(cc1OC)CN(C(=O)C1CCCN(CCCOc3ccc4c(c3)OCO4)C1)CC2 (stereo not given) | 370 | 
COc1cc2c(cc1OC)CN(C(=O)CCN1CCCC(CCCOc3ccc4c(c3)OCO4)C1)CC2 (stereo not given) | 390 | 
COc1cc2c(cc1OC)CN(C(=O)CCN1CCC(COc3ccc4c(c3)OCO4)CC1)CC2 | 470 | Heart rate (Rattus norvegicus [3]): -20 beats min-1
COc1cc2c(cc1OC)CN(C(=O)CCN1CCCC(CCOc3ccc4c(c3)OCO4)C1)CC2 (stereo not given) | 340 | 
COc1ccc(CCN(C)CCCN2CCc3cc(OC)c(OC)cc3CC2=O)cc1OC [ZATEBRADINE] | 260 | 
COc1cc2c(cc1OC)CN(C(=O)CCN1CCCC(COc3ccc4c(c3)OCO4)C1)CC2 (stereo not given) | 170 | 
COc1cc2c(cc1OC)CN(C(=O)CN1CCCC(COc3ccc4c(c3)OCO4)C1)CC2 (stereo not given) | 1170 | 
COc1cc2c(cc1OC)CN(C(=O)CCN1CCC(CCCOc3ccc4c(c3)OCO4)CC1)CC2 | 620 | 
COc1cc2c(cc1OC)CN(C(=O)CCCN1CCCC(COc3ccc4c(c3)OCO4)C1)CC2 (stereo not given) | 850 | 
